One data set concerns the target T1, BTK (Homo sapiens, UniProt Q06187).
T1 construct: purchased Upstate 14-552
The data set is described as follows: In vitro BTK kinase assay: BTK-POLYGAT-LS assay. It is filed as biochemical. Conditions: ATP 10 uM, polyGAT 100 nM, BTK 0.25 nM, 30 minutes; read-out: IC50 against BTK (polyGAT assay). How it is done: In vitro BTK kinase assay: BTK-POLYGAT-LS ASSAY. The purpose of the BTK in vitro assay was to determine compound potency against BTK through the measurement of IC50. Compound inhibition was measured after monitoring the amount of phosphorylation of a fluorescein-labeled polyGAT peptide (Invitrogen PV3611) in the presence of active BTK enzyme (Upstate 14-552), ATP, and inhibitor. The BTK kinase reaction was done in a black 96 well plate (costar 3694). For a typical assay, a 24 uL aliquot of an ATP/peptide master mix (final concentration; ATP 10 uM, polyGAT 100 nM) in kinase buffer (10 mM Tris-HCl pH 7.5, 10 mM MgCl2, 200 uM […], 5 mM DTT, 0.01% Triton X-100, and 0.2 mg/ml casein) was added to each well. Next, 1 uL of a 4-fold, 40× compound titration in 100% DMSO solvent was added, followed by adding 15 uL of BTK enzyme mix in 1× kinase buffer (with a final concentration of 0.25 nM). The assay was incubated for 30 minutes before being stopped with 28 uL of a 50 mM EDTA solution. Aliquots (5 uL) of the kinase reaction were transferred to a low volume white 384 well plate (Corning 3674), and 5 uL of a 2× detection buffer (Invitrogen PV3574, with 4 nM Tb-PY20 antibody, Invitrogen PV3552) was added. The plate was covered and incubated for 45 minutes at room temperature. Time resolved fluorescence (TRF) on Molecular Devices M5 (332 nm excitation; 488 nm emission; 518 nm fluorescein emission) was measured. IC50 values were calculated using a four parameter fit with 100% enzyme activity determined from the DMSO control and 0% activity from the EDTA control.

A further data set concerns the target T2, human PXR (Homo sapiens, UniProt O75469).
T2 construct: expressed in transfected cells; host or cells: DPX2 tumor cell line
T2 sequence (O75469 1-434): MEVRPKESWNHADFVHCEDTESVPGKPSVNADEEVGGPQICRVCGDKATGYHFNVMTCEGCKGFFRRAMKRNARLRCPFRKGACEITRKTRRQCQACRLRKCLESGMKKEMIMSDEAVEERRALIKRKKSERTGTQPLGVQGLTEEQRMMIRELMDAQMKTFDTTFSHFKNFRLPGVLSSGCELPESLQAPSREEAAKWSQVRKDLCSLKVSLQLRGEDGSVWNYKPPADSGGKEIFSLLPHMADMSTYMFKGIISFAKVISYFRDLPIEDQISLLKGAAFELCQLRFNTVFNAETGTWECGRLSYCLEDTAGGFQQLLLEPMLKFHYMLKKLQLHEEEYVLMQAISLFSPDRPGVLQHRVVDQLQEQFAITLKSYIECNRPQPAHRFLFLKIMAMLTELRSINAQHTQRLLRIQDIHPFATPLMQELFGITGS
Put plainly: PXR nuclear receptor activation reporter gene assay in human DPX2 cells. In kind it is cell-based. To be noted: 24 hr treatment. The source says: Study Protocol to Determine Activation of the PXR Nuclear Receptor in Human DPX2 Cells
Based on this pathway of CYP3A4 induction, cell-based PXR reporter gene assay is commonly used to screen new molecular entities (NMEs) in early drug discovery stage, for their potential to induce CYP3A4 (Luo G, et al.; Drug Metab Dispos. 2002 July; 30(7):795-804.) Studies were designed to evaluate the effect of new molecular entities (NMEs) on the activation of human PXR in DPX2 cells. Cell lines stably transfected with the PXR nuclear receptor and corresponding response elements were seeded into 96-well plates. Twenty-four hr after seeding, cells were treated with 6 distinct concentrations of NMEs in triplicate wells (see below), and cells then returned to the incubator for an additional 24 hr. At the end of this incubation period, the number of viable cells/well were determined using Promega's Cell Titer Fluor cytotoxicity assay. Following this assay, Promega's ONE-Glo was added to the same wells and reporter gene activity assessed.
The test system consisted of the stably transformed DPX2 tumor cell line plated on 96-well microtiter plates. An expression vector harboring the PXR nuclear receptor plus the appropriate enhancers and promoters linked to the luciferase reporter gene have been stably integrated into these tumor cell lines. Receptor activation was assessed by monitoring reporter gene activity, and by comparing the results to vehicle-treated cells. Positive controls consist of cells treated with 6 different concentrations (0.1, 0.5, 1, 5, 10, and 20 μM) of rifampicin. In this manner, compounds activating PXR can be easily and rapidly identified. Since stably-integrated cell lines were used, it is possible to observe from 3- to 70-fold receptor activation.
Data processed using MS-Excel was calculated as the mean (n=3) and % CV of the fold PXR activation relative to vehicle-treated cells at each of the 6 different doses. All activation data was normalized to the number of viable cells/well. Results were also expressed as a percentage of the response given by the appropriate positive control at a 10 μM dose. EC50 and Emax values were derived for test compounds that give receptor activation using nonlinear regression of typical log dose-response curves (Prism V5.0c, GraphPad Software, San Diego, Calif.).
d) New Molecular Entities (NMEs): Test Compounds were Tested at 0.05, 0.1, 0.5, 1, 2.5, and 10 μM

The target of data set [1] is T3, hERG (human ether-à-go-go-related gene) potassium channel (Homo sapiens, UniProt Q12809).
T3 construct: host or cells: HEK293
T3 sequence (Q12809 whole entry): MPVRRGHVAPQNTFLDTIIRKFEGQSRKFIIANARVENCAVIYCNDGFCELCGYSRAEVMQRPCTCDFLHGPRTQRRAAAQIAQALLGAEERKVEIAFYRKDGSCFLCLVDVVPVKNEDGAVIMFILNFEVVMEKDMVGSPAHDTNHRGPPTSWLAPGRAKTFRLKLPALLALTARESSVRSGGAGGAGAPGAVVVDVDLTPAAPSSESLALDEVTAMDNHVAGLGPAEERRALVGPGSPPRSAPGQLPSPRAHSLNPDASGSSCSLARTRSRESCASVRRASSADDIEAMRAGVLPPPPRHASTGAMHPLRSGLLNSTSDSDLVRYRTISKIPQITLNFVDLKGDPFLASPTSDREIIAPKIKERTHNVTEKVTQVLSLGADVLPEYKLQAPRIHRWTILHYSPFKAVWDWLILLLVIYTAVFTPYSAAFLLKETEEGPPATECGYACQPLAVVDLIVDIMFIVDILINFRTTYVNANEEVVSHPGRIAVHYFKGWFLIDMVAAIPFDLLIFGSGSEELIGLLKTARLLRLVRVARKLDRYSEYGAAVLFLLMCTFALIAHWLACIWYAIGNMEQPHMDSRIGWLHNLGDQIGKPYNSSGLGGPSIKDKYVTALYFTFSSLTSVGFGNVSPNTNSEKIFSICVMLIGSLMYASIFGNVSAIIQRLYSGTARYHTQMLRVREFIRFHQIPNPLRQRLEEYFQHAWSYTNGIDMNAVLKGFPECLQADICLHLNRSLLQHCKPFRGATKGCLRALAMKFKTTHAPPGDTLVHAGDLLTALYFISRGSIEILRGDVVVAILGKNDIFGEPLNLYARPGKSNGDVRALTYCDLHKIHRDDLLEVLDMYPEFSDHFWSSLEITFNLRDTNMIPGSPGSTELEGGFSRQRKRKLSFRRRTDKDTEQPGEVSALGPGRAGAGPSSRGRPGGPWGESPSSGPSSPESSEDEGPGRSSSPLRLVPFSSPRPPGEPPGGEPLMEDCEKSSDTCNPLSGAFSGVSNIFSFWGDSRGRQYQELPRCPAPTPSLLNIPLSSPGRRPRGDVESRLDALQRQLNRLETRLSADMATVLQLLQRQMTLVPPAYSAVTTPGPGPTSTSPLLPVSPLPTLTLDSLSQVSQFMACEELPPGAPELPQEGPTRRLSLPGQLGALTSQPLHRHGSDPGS
The data set is described as follows: FastPatch hERG inhibition assay (QPatch HT, HEK293 cells stably transfected with hERG cDNA). Conditions: for IC50: HEK293 cells, automated patch clamp, IC50 estimated from hERG inhibition data. In kind it is cell-based. From the text:
(§1) Protocol for FastPatch hERG Inhibition Assay:
(§2) The cardiac potassium channel, hERG, is responsible for a rapid delayed rectifier current (IKr) in human ventricle and inhibition of IKr is the most common cause of cardiac action potential prolongation by non-cardiac drugs (see, e.g., Weirich and Antoni, Basic Res. Cardiol., 93, Suppl. 1, 125-32, 1998; Yap and Camm, Clin. Exp. Allergy, 29, Suppl. 3, 174-81, 1999). Increased action potential duration has been cited as a factor in causing prolongation of the QT interval that has been associated with a dangerous ventricular arrhythmia, torsade de pointes (Brown and Rampe, Pharmaceutical News, 7, 15-20, 2000).
(§3) The in vitro effects of provided compounds was investigated on the hERG (human ether-à-go-go-related gene) potassium channel current (a surrogate for IKr, the rapidly activating, delayed rectifier cardiac potassium current) expressed in human embryonic kidney (HEK293) cells stably transfected with hERG cDNA. Cells were placed in HEPES-buffered physiological saline solution in a glass-lined 96-well plate and loaded with appropriate amounts of test and control solutions for a duration of a 3-minute exposure at each concentration. Test compound was diluted in 0.3% DMSO. An automated parallel patch clamp system, QPatch HT (Sophion Bioscience A/S, Denmark), was used to evaluate at various concentrations (e.g., 10 μM). The IC50 values was estimated based on the hERG inhibition data. The study was performed at ChanTest (14656 Neo Parkway, Cleveland, Ohio). The QPatch screen is further described by Janzen and Bernasconi (eds.), High Throughput Screening, Methods and Protocols, Second Edition, vol. 565, chapter 10, pg. 209-223, 2009.

The target in the next data set is T4, hERG potassium channel (Homo sapiens, UniProt Q12809).
T4 construct: host or cells: HEK293
T4 sequence (Q12809 whole entry): as above
The description is as above. It is filed as cell-based. Conditions: human, HEK293 cells stably transfected with hERG cDNA; 10 uM, HEK293 cells, automated patch clamp.
Text: as §1, §2, §3

Structures are written as SMILES.

T1 sequence (Q06187 whole entry): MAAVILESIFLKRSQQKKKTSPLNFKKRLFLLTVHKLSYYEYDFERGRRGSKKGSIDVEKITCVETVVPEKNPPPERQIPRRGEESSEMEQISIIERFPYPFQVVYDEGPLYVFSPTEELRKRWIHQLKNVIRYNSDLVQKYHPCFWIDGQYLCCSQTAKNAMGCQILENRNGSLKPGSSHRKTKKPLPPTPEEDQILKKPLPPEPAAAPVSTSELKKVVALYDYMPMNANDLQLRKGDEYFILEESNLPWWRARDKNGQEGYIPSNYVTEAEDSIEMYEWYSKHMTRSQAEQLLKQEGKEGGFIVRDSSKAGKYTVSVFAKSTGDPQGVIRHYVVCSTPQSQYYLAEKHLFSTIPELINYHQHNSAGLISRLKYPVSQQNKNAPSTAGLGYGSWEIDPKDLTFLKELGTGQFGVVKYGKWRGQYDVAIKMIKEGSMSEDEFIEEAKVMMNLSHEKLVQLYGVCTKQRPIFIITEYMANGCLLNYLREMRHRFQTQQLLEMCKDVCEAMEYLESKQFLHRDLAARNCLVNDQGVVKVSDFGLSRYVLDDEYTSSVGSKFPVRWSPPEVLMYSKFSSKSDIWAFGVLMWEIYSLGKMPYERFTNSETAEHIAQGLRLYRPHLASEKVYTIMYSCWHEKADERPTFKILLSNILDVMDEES

Take `NC(=O)[C@H]1CCN(c2ncnc(N)c2F)C[C@@H]1N1CCC[C@@H](Nc2cc(F)cc(C(F)(F)F)c2)C1=O` [Compound I-5, (3R,3′R,4′S)-1′-(6-amino-5-fluoropyrimidin-4-yl)-3-((3-fluoro-5-(trifluoromethyl)phenyl)amino)-2-oxo-[1,3′-bipiperidine]-4′-carboxamide]: the IC50 – broadly, the midpoint of a concentration-inhibition curve – on BTK was 1.6 nM. Also, the “PXR % induction (relative to 10 uM rifampin)” value on human PXR worked out at 90%. Besides, in data set [1] (10 uM, no IC50 available), the “observable activity in the hERG assay at 10 uM” value is listed as “no observable activity”.
In the case of `NC(=O)[C@H]1CCN(c2ncnc(N)c2F)C[C@@H]1N1CCC[C@@H](Nc2cc(F)cc(Cl)c2)C1=O` [Compound I-2], the results for the IC50 (at BTK; in data set [1]) were 0.68 nM and 30000 nM, respectively. Also, at human PXR, the “PXR % induction (relative to 10 uM rifampin)” value worked out at 42%.
Turning to `NC(=O)[C@H]1CCN(c2ncnc(N)c2F)C[C@@H]1N1CCC[C@@H](Nc2cc(Cl)cc(OC(F)(F)F)c2)C1=O` [Compound I-6], the IC50 at BTK was below 1 nM. The inhibition (as a rule, the drop in the measured response relative to a control, in per cent) at 3 min, 10 µM on hERG potassium channel is below 20%.
With `NC(=O)[C@H]1CCN(c2ncnc(N)c2F)C[C@@H]1N1CCC[C@@H](Nc2cc(Cl)cc(C(F)(F)F)c2)C1=O` [Compound I-1, (3R,3′R,4′S)-1′-(6-amino-5-fluoropyrimidin-4-yl)-3-((3-chloro-5-(trifluoromethyl)phenyl)amino)-2-oxo-[1,3′-bipiperidine]-4′-carboxamide], the values for the 50% inhibitory concentration (IC50) (at BTK; in data set [1]) were 0.73 nM and 15600 nM, respectively. Moreover, the “PXR % induction (relative to 10 uM rifampin)” value on human PXR amounted to 62%.
`CNC(=O)[C@H]1CCN(c2ncnc(N)c2F)C[C@@H]1N1CCC[C@@H](Nc2cc(Cl)cc(C(F)(F)F)c2)C1=O` [Compound I-4]: the IC50 on BTK was 0.63 nM; in data set [1], 13700 nM. Moreover, the “PXR % induction (relative to 10 uM rifampin)” value on human PXR was determined as 67%.
For the compound `CN(C)C(=O)[C@H]1CCN(c2ncnc(N)c2F)C[C@@H]1N1CCC[C@@H](Nc2cc(Cl)cc(C(F)(F)F)c2)C1=O` [Compound I-3, (3R,3′R,4′S)-1′-(6-amino-5-fluoropyrimidin-4-yl)-3-((3-chloro-5-(trifluoromethyl)phenyl)amino)-N,N-dimethyl-2-oxo-[1,3′-bipiperidine]-4′-carboxamide], the 50% inhibitory concentration (IC50) was 2.07 nM at BTK and 14600 nM in data set [1]. Moreover, on human PXR, the “PXR % induction (relative to 10 uM rifampin)” value is given as 47%.
Take `Nc1ncnc(N2CCC[C@@H](N3CCC[C@@H](Nc4cc(Cl)cc(C(F)(F)F)c4)C3=O)C2)c1F` [I^C, reference compound]: the IC50 at BTK is 2 nM; in data set [1] it was 1180 nM. On human PXR, the “PXR % induction (relative to 10 uM rifampin)” value stood at 95%. On hERG potassium channel, this compound registered an inhibition at 3 min, 10 µM of 87%.
Turning to `CN1CCN(C(=O)[C@H]2CCN(c3ncnc(N)c3F)C[C@@H]2N2CCC[C@@H](Nc3cc(Cl)cc(C(F)(F)F)c3)C2=O)CC1` [Compound I-7], the IC50 on BTK came to 1.2 nM. This compound returned an inhibition at 3 min, 10 µM against hERG potassium channel of 65%.

Values taken from patent US10618887B2 (Sunesis Pharmaceuticals, Inc., priority 2012, dated 2020).
